This is an account of results in US6872721B2, “Derivatives of 2,3,6,7,12,12a-hexahydropyrazino-[1′,2′:1,6]pyrido[3,4b]-indole-1,4-dione” (Lilly ICOS LLC, priority 2000, dated 2005).

The target in one series is human recombinant-PDE5 (Homo sapiens, UniProt O76074). The series is described as follows: Inhibitory effect on cGMP-PDE (PDE5 IC50, one-step assay). The series is classed as biochemical. The following applies: in vitro, 0.15 μM 8-[H3]-cGMP, 30 min incubation. Here is the method: The compounds of structural formula (I) were tested for an ability to inhibit PDE5. The ability of a compound to inhibit PDE5 activity is related to the IC50 value for the compound, i.e., the concentration of inhibitor required for 50% inhibition of enzyme activity. The IC50 value for compounds of structural formula (I) were determined using recombinant human PDE5.
cGMP-PDE activity of compounds of the present invention was measured using a one-step assay adapted from Wells et al., Biochim. Biophys. Acta, 384, 430 (1975). The reaction medium contained 50 mM Tris-HCl, pH 7.5, 5 mM magnesium acetate, 250 μg/ml 5′-Nucleotidase, 1 mM EGTA, and 0.15 μM 8-[H^3]-cGMP. Unless otherwise indicated, the enzyme used was a human recombinant-PDE5 (ICOS Corp., Bothell, Wash.).
Compounds of the invention were dissolved in DMSO finally present at 2% in the assay.

As to `CN1CC(=O)N2[C@H](c3ccc4c(c3)OCO4)c3[nH]c4ccc(O)cc4c3C[C@@H]2C1=O` (racemic) [Example 1, (+/−, cis)-6-Benzo[1,3]dioxol-5-yl-10-hydroxy-2-methyl-2,3,6,7,12,12a-hexahydropyrazino[1′,2′:1,6)pyrido[3,4-b]indole-1,4-dione], the melting point was 322 to 328 °C. For the same compound, on human recombinant-PDE5, the IC50 was found to be 48.1 nM.
`COc1ccc2[nH]c3c(c2c1)C[C@@H]1C(=O)N(C)CC(=O)N1[C@@H]3c1ccc2c(c1)OCO2` (racemic) [Example 2, (trans)-6-(1,3-Benzodioxol-5-yl)-10-methoxy-2-methyl-2,3,6,7,12,12a-hexahydropyrazino[1′,2′:1,6]pyrido[3,4-b]indole-1,4-dione]: the melting point lay within 259 to 261 °C. In addition, the IC50 on human recombinant-PDE5 is 402 nM.
`CN1CC(=O)N2[C@H](c3ccc4c(c3)OCO4)c3[nH]c4cc(-c5ccccc5)ccc4c3C[C@@H]2C1=O` (racemic) [Example 4, (+−, cis)-6-Benzo[1,3]dioxol-5-yl-2-methyl-9-phenyl-2,3,6,7,12,12a-hexahydropyrazino[1′,2′:1,6]pyrido[3,4-b]indole-1,4-dione] registered a melting point of 198 to 208 °C. At human recombinant-PDE5, the IC50 was 6 nM.
For the compound `COC(=O)c1ccc2c3c([nH]c2c1)[C@@H](c1ccc2c(c1)OCO2)N1C(=O)CN(C)C(=O)[C@H]1C3` (racemic) [Example 5, (+−, cis)-6-Benzo[1,3]dioxol-5-yl-2-methyl-1,4-dioxo-1,2,3,6,7,12,12a-octahydropyrazino[1′,2′:1,6]pyrido[3,4-b]indole-9-carboxylic acid methyl ester], the melting point fell in the range of 294 to 295 °C. In addition, the IC50 at human recombinant-PDE5 is 288 nM.
`CN1CC(=O)N2[C@H](c3ccc4c(c3)OCO4)c3[nH]c4cc(C(=O)O)ccc4c3C[C@H]2C1=O` (racemic) [Example 6, (+−,trans)-6-Benzo[1,3]dioxol-5-yl-2-methyl-1,4-dioxo-1,2,3,4,6,7,12,12a-octahydropyrazino[1′,2′:1,6]pyrido[3,4-b]indole-9-carobxylic acid] had a melting point of 246 to 252 °C. Moreover, at human recombinant-PDE5, the IC50 amounted to 151 nM.
The matching figures for `CN1CC(=O)N2[C@H](c3ccc4c(c3)OCO4)c3[nH]c4cc(C#N)ccc4c3C[C@@H]2C1=O` (racemic) [Example 7, (+−, cis)-6-Benzo[1,3]dioxol-5-yl-2-methyl-1,4-dioxo-1,2,3,4,6,7,12,12a-octahydropyrazino[1′,2′:1,6]pyrido[3,4-b]indole-9-carbonitrile]: 329 to 331 °C and 7 nM.
Compound `CN1CC(=O)N2[C@H](c3ccc4c(c3)OCO4)c3[nH]c4c(OCc5ccccc5)cccc4c3C[C@@H]2C1=O` (racemic) [Example 8, (+−, cis)-6-Benzo[1,3]dioxol-5-yl-8-benzyloxy-2-methyl-2,3,6,7,12,12a-hexahydropyrazino[1′2′:1,6]pyrido[3,4-b]indole-1,4-dione] displayed a melting point of 150 to 161 °C. Also, the IC50 at human recombinant-PDE5 was found to be 37 nM.
Turning to `COc1ccc2c3c([nH]c2c1)[C@@H](c1ccc2c(c1)OCO2)N1C(=O)CN(C)C(=O)[C@H]1C3` [Example 3, (6R,12aR)-6-Benzo[1,3]dioxol-5-yl-9-methoxy-2-methyl-2,3,6,7,12,12a-hexahydropyrazino-[1′,2′:1,6]pyrido[3,4-b]indole-1,4-dione], the melting point is 288 to 293 °C. Also, at human recombinant-PDE5, the IC50 was determined as 1.2 nM.
